Measured values reported in PubChem BioAssay AID977628 (Broad Institute, 2014).
Results filed as inconclusive are left out. Activity calls are given as the source filed them.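 The calls were made as follows: active = compound lowering the normal-ribosome reporter at least twice as much as the humanized-ribosome reporter, growth loss under a set limit; inconclusive = no clear call, values can overlap the other calls; inactive = the rest.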

Assays:
Assay in all cases: growth of wild-type and h24-humanized E. coli strains – h24 mutant RFP vs wild-type GFP, cherry-pick, dose response (AID 977628)
[1] = tested on: E. coli h24 humanized mutant RFP strain growth, fluorescence, 24 h
[2] = tested on: E. coli WT GFP strain growth, fluorescence, 24 h
[3] = tested on: E. coli mixed WT/h24 culture total growth, OD600, 24 h

## C(=C/c1nccc2c1[nH]c1ccccc12)/c1ccc2c(c1)OCO2
[1]
  AC50: > 100 µM

## COC(=O)c1cc2ccccc2n1S(=O)(=O)c1ccccc1
[1]
  AC50: > 100 µM

## O=C(CSCc1ccc(Br)cc1)NCc1ccccn1
[1]
  AC50: > 100 µM

## CCOc1cc(/C=C(\CC(=O)O)c2nc3ccccc3s2)ccc1OC
[1]
  AC50: > 100 µM

## CCOc1ccc2oc(-c3ccccc3)c(C(=O)N(C)C)c2c1
[1]
  AC50: > 100 µM

## O=C(C1Cc2ccccc2CN1C(=O)c1ccccc1)N1CCN(c2ccccc2)CC1 (stereo unspecified)
[1]
  AC50: > 100 µM

## CCOc1ccc(S(=O)(=O)N(C)c2ccc(OCC(=O)NCc3cccnc3)cc2)cc1
[1]
  AC50: > 100 µM

## C=CCNC(=O)c1ccccc1CCc1ccccc1
[1]
  AC50: > 100 µM

## Cc1nc2ncnn2c(N2CCC(C(=O)NC3CCCC3)CC2)c1Cc1ccccc1
[1]
  AC50: > 100 µM

## c1ccc(CSCc2ccccc2)cc1
[1]
  AC50: > 100 µM

## CC(=O)Nc1cccc(OCc2ccc([N+](=O)[O-])cc2)c1
[1]
  AC50: > 100 µM

## Nc1ccc(C(=O)OCCc2ccccc2)cc1
[1]
  AC50: > 100 µM

## O=C(c1cccs1)c1c[nH]cc1-c1ccccc1
[1]
  AC50: > 100 µM

## N#CCC(=O)Nc1ccc(C(=O)OCC(=O)Nc2ccc3ccccc3c2)cc1
[2]
  AC50: > 100 µM (inactive)
[3]
  AC50: > 100 µM

## CCCN(CC1CC1)C(=O)CSc1ncnc2sccc12
[2]
  AC50: > 100 µM (inactive)
[3]
  AC50: > 100 µM

## S=C1SCN(Cc2cccnc2)CN1Cc1ccccc1
[2]
  AC50: > 100 µM (inactive)
[3]
  AC50: > 100 µM

## O=C(c1ccc(-c2ccccc2)c(F)c1)C1CCCN(CCCn2cccn2)C1 (stereo unspecified)
[2]
  AC50: > 100 µM (inactive)
[3]
  AC50: > 100 µM

## CN(C)C(=O)C1C2NC(=S)N(c3cccc(Cl)c3)C1(C)Oc1ccc(Cl)cc12 (stereo unspecified)
[2]
  AC50: > 100 µM (inactive)
[3]
  AC50: > 100 µM

## Cc1cccc(Nc2nc(-c3ccc(F)cc3)cs2)n1
[2]
  AC50: > 100 µM (inactive)
[3]
  AC50: > 100 µM

## COC(=O)c1c(C)oc(C)c1S(=O)(=O)NC(c1ccccc1)c1ccccc1
[2]
  AC50: > 100 µM (inactive)
[3]
  AC50: 44.4 µM

## CC(C)Oc1ccc(C(CC(=O)O)NC(=O)C(Sc2ccccc2)c2ccccc2)cc1 (stereo unspecified)
[2]
  AC50: > 100 µM (inactive)
[3]
  AC50: > 100 µM

## CCOc1ccc2oc(C(=O)NC3CCN(Cc4ccccc4)CC3)c(C)c2c1
[2]
  AC50: > 100 µM (inactive)
[3]
  AC50: > 100 µM

## CCSc1nc2ccccc2c(=O)n1Cc1ccc(F)cc1
[2]
  AC50: > 100 µM (inactive)
[3]
  AC50: 45.7 µM

## COc1ccc(OC)c(-c2nnc3n2N=C(c2ccc(OC)c(OC4CCOC4)c2)CS3)c1 (stereo unspecified)
[2]
  AC50: > 100 µM (inactive)
[3]
  AC50: > 100 µM

## COc1ccc(-c2nnn(CC(=O)N3CCN(c4ccccc4OC)CC3)n2)cc1OC
[2]
  AC50: > 100 µM (inactive)
[3]
  AC50: > 100 µM

## O=C(CSc1ccc(-c2cccnc2)nn1)N1CCCc2ccccc21
[2]
  AC50: > 100 µM (inactive)
[3]
  AC50: > 100 µM

## CCN(CC)CC(=O)Nc1ccc(-c2ccc(NC(=O)CN(CC)CC)c(OC)c2)cc1OC
[2]
  AC50: > 100 µM (inactive)
[3]
  AC50: > 100 µM

## Cc1ccc(N(CC(O)Cn2nc(C)cc2C)S(=O)(=O)c2ccc3ccccc3c2)cc1 (stereo unspecified)
[2]
  AC50: > 100 µM (inactive)
[3]
  AC50: 49.4 µM

## CCCNC(=O)c1noc2c1CCc1cc(OC)ccc1-2
[2]
  AC50: > 100 µM (inactive)
[3]
  AC50: 34.8 µM

## O=C(CCCn1c(=S)[nH]c2ccsc2c1=O)Nc1ccc2c(c1)OCCO2
[2]
  AC50: > 100 µM (inactive)
[3]
  AC50: 46.7 µM

## C(=C(c1ccccc1)c1ccccc1)c1ccccn1
[2]
  AC50: > 100 µM (inactive)
[3]
  AC50: > 100 µM

## C=C1SC(Nc2c(C)cc(C)cc2C)=NC12CCCCC2
[2]
  AC50: > 100 µM (inactive)
[3]
  AC50: 22.8 µM

## CCOC(=O)c1nc(C)sc1-c1ccnn1S(=O)(=O)c1cccc(Cl)c1
[2]
  AC50: > 100 µM (inactive)
[3]
  AC50: 41.7 µM

## COc1ccc(NC(=O)CN(c2ccccc2OC)S(=O)(=O)c2cccs2)cc1Cl
[2]
  AC50: > 100 µM (inactive)
[3]
  AC50: > 100 µM

## O=C(Nc1ccc2nc3n(c(=O)c2c1)CCCCC3)c1c(F)ccc([N+](=O)[O-])c1F
[2]
  AC50: > 100 µM (inactive)
[3]
  AC50: > 100 µM

## Cc1ccc(NC(=O)c2ccc(CSc3ccccn3)cc2)c(O)c1
[2]
  AC50: > 100 µM (inactive)
[3]
  AC50: 22.2 µM

## O=C(CSc1nc2ccccc2[nH]1)Nc1cccc(S(=O)(=O)N2CCOCC2)c1
[2]
  AC50: > 100 µM (inactive)
[3]
  AC50: 47.9 µM

## Brc1cc2c(cc1Br)OCCOCCOCCO2
[2]
  AC50: > 100 µM (inactive)
[3]
  AC50: > 100 µM

## CC(C)(C)c1cc(-c2n[nH]c(=S)n2-c2ccc(Cl)cc2)n[nH]1
[2]
  AC50: > 100 µM (inactive)
[3]
  AC50: > 100 µM

## CCn1c(CNC(=O)c2ccccc2F)cc2cc(C)ccc21
[2]
  AC50: > 100 µM (inactive)
[3]
  AC50: > 100 µM

## CC(=O)Nc1ccc(-c2ccnc3c2CC(C)(C(=O)Nc2ccc4c(c2)OCO4)O3)cc1 (stereo unspecified)
[2]
  AC50: > 100 µM (inactive)
[3]
  AC50: > 100 µM

## CN1C(=O)c2cccc3c(S(=O)(=O)NCCc4ccccc4)ccc1c23
[2]
  AC50: > 100 µM (inactive)
[3]
  AC50: > 100 µM

## COCC#Cc1ccc2c(c1)O[C@@H](CN(C)S(=O)(=O)c1cccc(F)c1)[C@@H](C)CN([C@H](C)CO)S2(=O)=O
[2]
  AC50: > 100 µM (inactive)
[3]
  AC50: 50 µM

## COc1ccc(C(=O)Nc2ccc(Nc3ccccc3)cc2)cc1[N+](=O)[O-]
[2]
  AC50: > 100 µM (inactive)
[3]
  AC50: > 100 µM

## O=C(NCc1ccc(S(=O)(=O)Nc2ccccc2Cl)s1)c1ccccc1
[2]
  AC50: > 100 µM (inactive)
[3]
  AC50: > 100 µM

## COc1cc2c(cc1NC(=O)C(C)Sc1cccc[n+]1[O-])oc1ccccc12 (stereo unspecified)
[2]
  AC50: > 100 µM (inactive)
[3]
  AC50: > 100 µM

## COC(=O)c1cc(C(=O)Cc2ccccc2)c[nH]1
[2]
  AC50: > 100 µM (inactive)
[3]
  AC50: > 100 µM

## CCc1cc(C(=O)N2CCCC(C(=O)c3cccc4ccccc34)C2)n(C)n1 (stereo unspecified)
[2]
  AC50: > 100 µM (inactive)
[3]
  AC50: > 100 µM

## O=C(Nc1cccc(Cl)c1)N1C[C@@H]2[C@H](c3ccccc31)[C@@H](CO)N2CC1CCCCC1
[2]
  AC50: > 100 µM (inactive)
[3]
  AC50: 41.9 µM

## Cc1ccc(Oc2ccc(S(=O)(=O)N3CCOCC3)cc2C(N)=O)cc1C
[2]
  AC50: > 100 µM (inactive)
[3]
  AC50: > 100 µM

## Cc1ccc(OCCn2c(=S)[nH]c3c(N)ncnc32)cc1
[2]
  AC50: > 100 µM (inactive)
[3]
  AC50: 34.3 µM

## O=C(NCc1ccc(Cl)cc1)c1csc(-c2cccnc2)n1
[2]
  AC50: > 100 µM (inactive)
[3]
  AC50: 49.1 µM

## O=C(Cn1c(CO)nc2ccccc21)NCCc1ccc(F)cc1
[2]
  AC50: > 100 µM (inactive)
[3]
  AC50: > 100 µM

## NS(=O)(=O)c1cccc(NC(=O)CSc2nc3ccccc3n2-c2ccccc2)c1
[2]
  AC50: > 100 µM (inactive)
[3]
  AC50: 38.1 µM

## Cc1ccc(NC(=O)c2cccs2)cc1[N+](=O)[O-]
[2]
  AC50: > 100 µM (inactive)
[3]
  AC50: > 100 µM

## Cc1nc2ccc(Br)cc2c(=O)n1Cc1cccs1
[2]
  AC50: > 100 µM (inactive)
[3]
  AC50: 49.7 µM

## CCOC(=O)c1c(C)nsc1NCc1ccccc1
[2]
  AC50: > 100 µM (inactive)
[3]
  AC50: 30.9 µM

## COc1ccc(OC)c(C(=O)COC(=O)c2ccc([N+](=O)[O-])o2)c1
[2]
  AC50: > 100 µM (inactive)
[3]
  AC50: > 100 µM

## COc1ccc(-n2ccnc2SCC(=O)NCc2ccccc2)c(OC)c1
[2]
  AC50: > 100 µM (inactive)
[3]
  AC50: > 100 µM

## O=C(CSCc1c(Cl)cccc1Cl)Nc1cccnc1
[2]
  AC50: > 100 µM (inactive)
[3]
  AC50: > 100 µM

## Cc1cc(Cl)n2ncc(-c3ccccc3)c2n1
[2]
  AC50: > 100 µM (inactive)
[3]
  AC50: > 100 µM

## CCOc1ccc(OCC)c(NC(=O)CSc2nc3c(c(=O)n(C)c(=O)n3C)n2C(C)C)c1
[2]
  AC50: > 100 µM (inactive)
[3]
  AC50: 45.5 µM

## Nc1[nH]c(C(=O)c2ccccc2)c(-c2ccc(Br)cc2)c1C(=O)c1cccs1
[2]
  AC50: > 100 µM (inactive)
[3]
  AC50: > 100 µM

## CC(C)Oc1cccc(C(=O)C2CCCN(C(=O)c3cc(C(F)(F)F)[nH]n3)C2)c1 (stereo unspecified)
[2]
  AC50: > 100 µM (inactive)
[3]
  AC50: 51.3 µM

## COc1cc(C(F)(F)F)c(C(=O)N(C)Cc2ccc(Cl)c(Cl)c2)cn1
[2]
  AC50: > 100 µM (inactive)
[3]
  AC50: > 100 µM

## Nc1ncncc1-c1ccc(Cl)cc1
[2]
  AC50: > 100 µM (inactive)
[3]
  AC50: > 100 µM

## COc1cc(NC(=O)CSCc2ccc(Cl)cc2Cl)c(C(=O)O)cc1OC
[2]
  AC50: > 100 µM (inactive)
[3]
  AC50: > 100 µM

## Cc1cc(C)n(CC(O)COc2ccc3ccccc3c2)n1 (stereo unspecified)
[2]
  AC50: > 100 µM (inactive)
[3]
  AC50: > 100 µM

## COc1ccc(C(=O)COC(=O)c2ccccc2O)c(OC)c1
[2]
  AC50: > 100 µM (inactive)
[3]
  AC50: 40 µM

## O=C(Cn1cc(COc2c(F)c(F)cc(F)c2F)nn1)c1ccc(O)cc1
[2]
  AC50: > 100 µM (inactive)
[3]
  AC50: > 100 µM

## CS(=O)(=O)N(CC(=O)N1CCc2ccccc2C1)c1ccc(Br)cc1
[2]
  AC50: > 100 µM (inactive)
[3]
  AC50: 47 µM

## COC(=O)c1ccc2nc(-c3ccc(OC)c(OC)c3)c(Cc3ccc(C)cc3)n2c1
[2]
  AC50: > 100 µM (inactive)
[3]
  AC50: > 100 µM

## CC(C)(C)c1ccc2c(c1)C(c1ccc3c(c1)OCO3)CC(=O)O2 (stereo unspecified)
[2]
  AC50: > 100 µM (inactive)
[3]
  AC50: > 100 µM

## COc1ccc(N(C)S(=O)(=O)c2cccc(C(=O)NC3CCCCC3C)c2)cc1 (stereo unspecified)
[2]
  AC50: > 100 µM (inactive)
[3]
  AC50: 47.7 µM

## O=C(NCC(c1ccc(F)cc1)N1CCOCC1)c1ccc([N+](=O)[O-])o1 (stereo unspecified)
[2]
  AC50: > 100 µM (inactive)
[3]
  AC50: > 100 µM

## CCCN(CC(=O)Nc1ccccc1C)C(=O)c1cccc(S(=O)(=O)N2CCc3ccccc3C2)c1
[2]
  AC50: > 100 µM (inactive)
[3]
  AC50: 51.9 µM

## COc1ccc(C(=O)Nc2ccc3nc(C)sc3c2)cc1OC
[2]
  AC50: > 100 µM (inactive)
[3]
  AC50: > 100 µM

## Cc1nnn(C23CC4CC(CC(CC(=O)Nc5ccc(C)c(C)c5)(C4)C2)C3)n1
[2]
  AC50: > 100 µM (inactive)
[3]
  AC50: > 100 µM

## Cc1c(C(=O)N(Cc2ccc(F)cc2)C2CCS(=O)(=O)C2)oc2ccccc12 (stereo unspecified)
[2]
  AC50: > 100 µM (inactive)
[3]
  AC50: > 100 µM

## CCOc1cccc2sc(N(CCCN(C)C)C(=O)c3ccc(S(=O)(=O)N4CCCCCC4)cc3)nc12
[2]
  AC50: > 100 µM (inactive)
[3]
  AC50: > 100 µM

## CSc1c(-c2ccccn2)c(N)nn1C(=O)C1CC1
[2]
  AC50: > 100 µM (inactive)
[3]
  AC50: > 100 µM

## CCCCNC(=O)c1onc(CSc2cc(C)cc(C)c2)c1C(=O)O
[2]
  AC50: > 100 µM (inactive)
[3]
  AC50: 28 µM
